According to US20100166727A1, “S-Adenosylmethionine And Methylthioadensosine In Chemoprevention And Treatment Of Colon Polyps And Cancer” (UNIVERSITY OF SOUTHERN CALIFORNIA, priority 2007, published 2010):
pIC50: −log10 of the molar value.

Experiments:
[1] = Stability of SAMe and MTA in culture medium without cells and in water; assay type: physicochemical; settings: culture medium at 37° C., linear regression
Description: FIG. 12. […] SAMe (A) and MTA (B) levels were measured in culture medium without cells with starting SAMe concentrations ranging from 1 to 5 mM and MTA concentration at 1 mM.
To test whether the mitogens-induce increase in. MAT2A is to provide increased SAMe necessary for polyamine synthesis in growing cells, SAMe and polyamine levels were measured following treatment of HT-29 cells with mitogens.

human MAT2A promoter = test: Luciferase activity driven by the human MAT2A promoter in HT-29 cells; assay type: cell-based; settings: SAMe 5 mM or MTA 1 mM, 6 hrs
Description: (§1) The human MAT2A promoter construct[…] and GSS promoter construct −1686/−46-LUC were previously described (33, 34, 50), and subcloned in the sense orientation upstream of the luciferase coding sequence of the pGL-3 enhancer vector (Promega). Both promoter constructs contain maximal promoter activity.
To study the effect of mitogens on human MAT2A promoter activity in HT-29 cells, HT-29 cells (5×10^5 cells in 2 ml serum-free medium) were transiently transfected with 2 μg MAT2A promoter firefly luciferase gene construct or promoterless pGL3-enhancer vector (as negative control) using the Superfect Transfection Reagent (Qiagen, Valencia, Calif.) (34). To control for transfection efficiency, cells were co-transfected with the Renilla phRL-TK vector (Promega, Madison, Wis.). […] The luciferase activity driven by the MAT2A promoter construct was normalized to Renilla luciferase activity. Each experiment was done with triplicate samples.

MAT I = MAT I (Rattus norvegicus, UniProt P13444); settings: cited from earlier work
cFLIPL = test: Colonic cFLIPL mRNA in mice fed SAMe or MTA; assay type: in vivo; settings: oral, 6 days
Description: FIG. 30. Effects of oral SAMe and MTA on colonic mRNA levels of MAT2A, MAT2 β, and […]. Mice were fed SAMe (150 to 450 mg/kg/d) or MTA (75 or 150 mg/kg/d) in drinking water for 6 days. Colonic mucosa was scrapped off and gene expression measured by real-time PCR.

human GSS promoter = test: Human GSS promoter activity in HT-29 cells; assay type: cell-based; settings: SAMe or MTA treatment as for MAT2A promoter
Description: as §1, with “activity. Specificity of SAMe and MTA on promoter activity was examined by transfecting HT-29 cells with the GSS promoter construct and treating cells with SAMe or MTA as above.” for “activity.”

Bcl-xL = Bcl-xL mRNA level in HT-29 cells; assay type: cell-based, human; settings: SAMe 2 mM, 6 hrs
Description: SAMe and MTA induce apoptosis in liver cancer cells by the mitochondrial pathway (14). […] In liver cancer cells, SAMe and MTA induced selectively expression of Bcl-xs, a pro-apoptotic protein (67). We examined whether the same occurs in HT-29 cells. After 6 hrs of MTA (1 mM) treatment, Bcl-xL mRNA level fell by 53% (47±4% of control, results are mean±SE from 4 experiments, p<0.0005). […] This makes these agents particularly attractive in targeting colon cancer cells.

c-FLIP = c-FLIP mRNA level by real-time PCR in HT-29 cells; assay type: cell-based, human; settings: SAMe 2 mM, MTA 1 mM, 6 hrs, mean±SE

Sequence of MAT I (P13444 whole entry): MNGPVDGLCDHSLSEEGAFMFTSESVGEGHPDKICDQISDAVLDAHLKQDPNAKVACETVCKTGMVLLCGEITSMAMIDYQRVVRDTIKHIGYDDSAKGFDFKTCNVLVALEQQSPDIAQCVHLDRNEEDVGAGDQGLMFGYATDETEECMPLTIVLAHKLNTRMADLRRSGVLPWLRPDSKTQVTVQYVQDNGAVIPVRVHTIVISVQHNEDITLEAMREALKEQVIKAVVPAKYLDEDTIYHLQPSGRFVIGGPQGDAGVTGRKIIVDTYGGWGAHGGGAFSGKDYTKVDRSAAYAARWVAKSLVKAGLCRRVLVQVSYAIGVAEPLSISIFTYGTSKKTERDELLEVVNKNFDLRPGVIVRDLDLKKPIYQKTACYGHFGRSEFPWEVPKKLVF

**Q.** For `C[S+](CC[C@H](N)C(=O)O)C[C@H]1O[C@@H](n2cnc3c(N)ncnc32)[C@H](O)[C@@H]1O` (some centres unmarked) [SAMe, S-adenosylmethionine], which “rate of conversion from SAMe to MTA” value [1] is on record?
**A.** Its value is 0.013 mM per hour per mM SAMe.

**Q.** What about the “human MAT2A promoter activity” value (human MAT2A promoter) of the same molecule?
**A.** The value was “lower the promoter activity”.

**Q.** What about the “Inhibition by SAMe” value (MAT I; MAT I) of the same molecule?
**A.** The value was “No”.

**Q.** And the pIC50 (MAT I; read-out: IC50, inhibition of MAT I)?
**A.** Its pIC50 is 3.40.

**Q.** What about the cFLIPL expression (cFLIPL) of the same molecule?
**A.** Its cFLIPL expression is “inhibited cFLIPL expression”.

**Q.** And the “human GSS promoter activity” value (human GSS promoter)?
**A.** Its value is “no influence on the human GSS promoter activity”.

**Q.** And the “Bcl-xL mRNA level” value (Bcl-xL)?
**A.** Its value is “did not have an effect”.

**Q.** And the “c-FLIP mRNA level” value (c-FLIP)?
**A.** Its value is 70±2 % of control.
